Patent US20260285850A1, “SUBSTITUTED OXAZOLIDINONES AND IMIDAZOLINONES AS HERBICIDES” (FMC CORPORATION, priority 2023, published 2026)

Columns and labels:
Assay type in all cases: in vivo
[1] = system: barnyardgrass (Echinochloa crus-galli); test: Test A preemergence soil spray, visual injury rating 0-100; settings: 10 days
Procedure, shortened: (§1)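 Greenhouse test: loam/sand pots received a surfactant-containing formulation, as a preemergence directed soil spray or a postemergence spray on young plants. Injury was judged visually at day 10 relative to untreated controls.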

[2] = system: blackgrass (Alopecurus myosuroides); test: as above; settings: 10 days
Procedure, shortened: as §1

corn (Zea mays) [3] = test: as above; settings: 10 days
Procedure, shortened: as §1

[4] = system: green foxtail (Setaria viridis); test: as above; settings: 10 days
Procedure, shortened: as §1

kochia (Bassia scoparia) [5] = test: as above; settings: 10 days
Procedure, shortened: as §1

[6] = system: oat, wild (wild oat, Avena fatua); test: as above; settings: 10 days
Procedure, shortened: as §1

[7] = system: ragweed (common ragweed, Ambrosia artemisiifolia); test: as above; settings: 10 days
Procedure, shortened: as §1

[8] = system: ryegrass, Italian (italian ryegrass, Lolium multiflorum); test: as above; settings: 10 days
Procedure, shortened: as §1

soybean (Glycine max) [9] = test: as above; settings: 62 g ai/ha, 10 days, 0 = no effect, 100 = complete control
Procedure, shortened: as §1

[10] = system: wheat (Triticum aestivum); test: as above; settings: 10 days
Procedure, shortened: as §1

[11] = system: barnyardgrass (Echinochloa crus-galli); test: Test A postemergence application, visual injury rating 0-100
Procedure, shortened: as §1

[12] = system: blackgrass (Alopecurus myosuroides); test: as above
Procedure, shortened: as §1

corn (Zea mays) [13] = test: as above
Procedure, shortened: as §1

[14] = system: galium (catchweed bedstraw, Galium aparine); test: as above
Procedure, shortened: as §1

[15] = system: green foxtail (Setaria viridis); test: as above
Procedure, shortened: as §1

[16] = system: horseweed (Erigeron canadensis); test: as above
Procedure, shortened: as §1

kochia (Bassia scoparia) [17] = test: as above
Procedure, shortened: as §1

[18] = system: oat, wild (wild oat, Avena fatua); test: as above
Procedure, shortened: as §1

[19] = system: palmer (palmer amaranth, palmer pigweed, Amaranthus palmeri); test: as above
Procedure, shortened: as §1

[20] = system: ragweed (common ragweed, Ambrosia artemisiifolia); test: as above
Procedure, shortened: as §1

[21] = system: ryegrass, Italian (italian ryegrass, Lolium multiflorum); test: as above
Procedure, shortened: as §1

soybean (Glycine max) [22] = test: as above
Procedure, shortened: as §1

[23] = system: wheat (Triticum aestivum); test: as above
Procedure, shortened: as §1

[24] = system: barnyardgrass (Echinochloa crusgalli); test: Test B flooded paddy test, visual plant response rating 0-100; settings: 250 g ai/ha, Flood, applied to paddy water, evaluated after 13 days
Procedure, shortened: (§2)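 Each species was raised to two leaves before flooding to a 3 cm depth and dosing the water with compound. Injury was assessed by eye after 13 days under greenhouse conditions.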

[25] = system: ducksalad (Heteranthera limosa); test: as above; settings: 250 g ai/ha, Flood, applied to paddy water, evaluated after 13 days
Procedure, shortened: as §2

rice (Oryza sativa) = test: as above; settings: 250 g ai/ha, Flood, applied to paddy water, evaluated after 13 days
Procedure, shortened: as §2

[26] = system: sedge, umbrella (small-flower umbrella sedge, Cyperus difformis); test: as above; settings: 250 g ai/ha, Flood, applied to paddy water, evaluated after 13 days
Procedure, shortened: as §2

[27] = 62 g ai/ha, 0 = no effect, 100 = complete control
[28] = 62 g ai/ha, postemergence, 10 days, 0 = no effect, 100 = complete control
[29] = Postemergence, 16 g ai/ha, greenhouse 10 days, 0 no effect, 100 complete control

CC1(C(=O)NC2CC=C(C(=O)OCC(F)(F)F)C2)CN(c2cc(F)cc(Cl)c2)C(=O)O1 (stereo not shown) [Compound 142]
0: Barnyardgrass plant response rating ([1]; 16 g ai/ha, 0 to 100 scale) | Barnyardgrass plant response rating (0-100) [1, 27] | Blackgrass plant response rating ([2]; 16 g ai/ha, 0 to 100 scale) | Blackgrass plant response rating (0-100) [2, 27] | Corn plant response rating (corn (Zea mays) [3]; 16 g ai/ha, 0 to 100 scale) | Corn plant response rating (0-100) (corn (Zea mays) [3]; [27]) | Foxtail, Green plant response rating ([4]; 16 g ai/ha, 0 to 100 scale) | Foxtail, Green plant response rating (0-100) [4, 27] | Kochia plant response rating (kochia (Bassia scoparia) [5]; 16 g ai/ha, 0 to 100 scale) | Kochia plant response rating (0-100) (kochia (Bassia scoparia) [5]; [27]) | Oat, Wild plant response rating ([6]; 16 g ai/ha, 0 to 100 scale) | Oat, Wild plant response rating (0-100) [6, 27] | Ragweed plant response rating ([7]; 16 g ai/ha, 0 to 100 scale) | Ragweed plant response rating (0-100) [7, 27] | Ryegrass, Italian plant response rating ([8]; 16 g ai/ha, 0 to 100 scale) | Ryegrass, Italian plant response rating (0-100) [8, 27] | Soybean plant response rating (0-100) (soybean (Glycine max) [9]) | Wheat plant response rating ([10]; 16 g ai/ha, 0 to 100 scale) | Wheat plant response rating (0-100) [10, 27] | Barnyardgrass plant response rating (0-100) [11, 28] | Barnyardgrass plant response rating (0 to 100 scale) [11, 29] | Blackgrass plant response rating (0-100) [12, 28] | Blackgrass plant response rating (0 to 100 scale) [12, 29] | Corn plant response rating (0-100) (corn (Zea mays) [13]; [28]) | Corn plant response rating (0 to 100 scale) (corn (Zea mays) [13]; [29]) | Galium plant response rating (0-100) [14, 28] | Galium plant response rating (0 to 100 scale) [14, 29] | Foxtail, Green plant response rating (0-100) [15, 28] | Foxtail, Green plant response rating (0 to 100 scale) [15, 29] | Horseweed plant response rating (0-100) [16, 28] | Horseweed plant response rating (0 to 100 scale) [16, 29] | Kochia plant response rating (0-100) (kochia (Bassia scoparia) [17]; [28]) | Kochia plant response rating (0 to 100 scale) (kochia (Bassia scoparia) [17]; [29]) | Oat, Wild plant response rating (0-100) [18, 28] | Oat, Wild plant response rating (0 to 100 scale) [18, 29] | Pigweed, Palmer plant response rating (0-100) [19, 28] | Pigweed, Palmer plant response rating (0 to 100 scale) [19, 29] | Ragweed plant response rating (0-100) [20, 28] | Ragweed plant response rating (0 to 100 scale) [20, 29] | Ryegrass, Italian plant response rating (0-100) [21, 28] | Ryegrass, Italian plant response rating (0 to 100 scale) [21, 29] | Soybean plant response rating (0-100) (soybean (Glycine max) [22]; [28]) | Soybean plant response rating (0 to 100 scale) (soybean (Glycine max) [22]; [29]) | Wheat plant response rating (0-100) [23, 28] | Wheat plant response rating (0 to 100 scale) [23, 29] | Plant response rating, Barnyardgrass (0 to 100 scale, 0 is no effect and 100 is complete control) [24] | Plant response rating, Ducksalad (0 to 100 scale, 0 is no effect and 100 is complete control) [25] | Plant response rating, Rice (0 to 100 scale, 0 is no effect and 100 is complete control) (rice (Oryza sativa)) | Plant response rating, Sedge, Umbrella (0 to 100 scale, 0 is no effect and 100 is complete control) [26]
